{
  "source": "patent US20240307374A1",
  "about": "“FORMULATION OF FURIN INHIBITOR FOR INHALATION” (BP ASSET V, INC., priority 2021, published 2024)",
  "assay_type_in_all_cases": "physicochemical",
  "key": {"[1]": {"assay": "Solubility of freeform Type D with sugars", "description": "The samples were sonicated for about 2 minutes, and the samples were almost clear (little solid was observed) and filtered for clear solution, pH of the solutions were 3.5. About 68.5 mg lactose and sucrose were added into the two solutions, respectively. The two samples were clear after adding sugar, and pH of the two samples remained 3.5. pH of the two solutions was adjusted to 5.1 by adding 1 M NaOH, and no solid precipitated out after pH adjustment.\nThe three solutions were stored under 5° C. for three days, and no solid precipitated out after cooling. The concentration and pH were tested for each sample."}, "[2]": {"assay": "Equilibrium solubility of freeform Type D in pH=4.0 and 5.0 citrate/phosphate buffers", "details": "for Form: XRPD of precipitate; for Form / solubility at 24 h / End pH (24 hours): citrate/phosphate buffer; for Form / solubility at 24 h / solid form after equilibrium (XRPD): 24 hours; for solubility at 24 h: aqueous buffer, thermodynamic from solid; for solid form after equilibrium (XRPD): RT", "description": "The suspension was equilibrated via stirring (1000 rpm) for 24 hours. The suspension was centrifuged to obtain precipitate and supernatants. Solubility and pH were tested for the supernatants after filtration, and isolated precipitate was tested by XRPD."}, "[3]": {"assay": "Solubility profile of freeform Type D in citrate buffers", "details": "for solubility at 24 h: thermodynamic from solid, read-out: Solubility", "description": "Additional solids were added into the sample to generate suspension if clear solution was obtained. The suspension was equilibrated via stirring (1000 rpm) for 24 hours. The suspension was centrifuged to obtain precipitate and supernatants. Solubility and pH were tested for the supernatants after filtration, and the isolated precipitate was tested by XRPD."}, "[4]": {"assay": "Complexation stability constant test: solubility in HPβCD solutions", "details": "for solubility at 24 h: thermodynamic from solid", "description": "Additional solid was added into the sample to generate suspension if clear solution was obtained. The suspension was equilibrated via stirring (1000 rpm) for 24 hours. The suspension was centrifuged to obtain precipitate and supernatants. Solubility and pH was determined for the supernatants after filtration, and XRPD was obtained for the isolated precipitate."}, "[5]": {"assay": "Humidity induced experiments (solid-state stability of freeform Type D under different humidities)", "details": "~7%, ~22%, ~43%, ~58%, ~84% RH, RT, 6 weeks", "description": "The 3-mL vial was then placed into a 20-mL vial with 4 mL of the corresponding saturated salt solution. The 20-mL vial was sealed with a cap and kept at RT for the water vapor to interact with the solid."}, "[6]": {"assay": "Thermodynamic relationships study: slurry competition in acetone/H2O systems", "details": "RT", "description": "Slurry competition was conducted in acetone/H2O systems with various water activities (0.0-1.0). […] Solids were separated and tested by XRPD.\nTo measure the solubility of freeform in acetone/H2O systems with various water activities, the above experiments were re-performed with addition of aw=0.3 acetone/H2O system. The suspension sample was centrifuged to obtain precipitate and supernatants. Solubility was tested for the supernatants after filtration, and isolated precipitate was tested by XRPD.\nSolids were separated and tested by XRPD."}, "[7]": {"details": "30 mmol freeform Type D + 30 mmol citric acid, initial pH 3.6"}, "[8]": {"details": "50 mmol freeform Type D + 50 mmol citric acid + ~200 mmol lactose, initial pH 5.1"}, "[9]": {"details": "50 mmol freeform Type D + 50 mmol citric acid + ~200 mmol sucrose, initial pH 5.1"}},
  "note": "Entries after “also recorded” stand apart in the source; their conditions may differ.",
  "data": [
    {"smiles": "CC(=O)NCC1CCN(Cc2cc(Oc3ccc(N4CCN(CCC(=O)O)CC4)nc3)nc(-c3cc(Cl)cc(Cl)c3)c2)CC1", "note": "[Freeform Type D]", "values": [
      {"measurement": "Concentration", "setting": "[1]; [7]", "result": 18110, "unit": "µg/mL"},
      {"measurement": "End pH (24 hours)", "setting": "[1]; [7]", "result": 3.6},
      {"measurement": "Purity", "setting": "[1]; [7]", "result": 99.8, "unit": "Area %"},
      {"measurement": "Concentration", "setting": "[1]; [8]", "result": 26450, "unit": "µg/mL"},
      {"measurement": "End pH (24 hours)", "setting": "[1]; [8]", "result": 5.1},
      {"measurement": "Purity", "setting": "[1]; [8]", "result": 99.8, "unit": "Area %"},
      {"measurement": "Concentration", "setting": "[1]; [9]", "result": 26500, "unit": "µg/mL"},
      {"measurement": "End pH (24 hours)", "setting": "[1]; [9]", "result": 5.3},
      {"measurement": "Purity", "setting": "[1]; [9]", "result": 99.8, "unit": "Area %"},
      {"measurement": "Form", "setting": "[2]; initial pH 4.0, RT", "result": "Low crystallinity*"},
      {"measurement": "Form", "setting": "[2]; initial pH 5.0, RT", "result": "Freeform Type D"},
      {"measurement": "solubility at 24 h", "setting": "[2]; initial pH 4.0, RT", "result": 30.6, "unit": "mg/mL"},
      {"measurement": "solubility at 24 h", "setting": "[2]; initial pH 5.0, RT", "result": 1.29, "unit": "mg/mL"},
      {"measurement": "End pH (24 hours)", "setting": "[2]; initial pH 4.0, RT", "result": 5.2},
      {"measurement": "End pH (24 hours)", "setting": "[2]; initial pH 5.0, RT", "result": 5.2},
      {"measurement": "solid form after equilibrium (XRPD)", "setting": "[2]; pH=4.0 citrate/phosphate", "result": "Low crystallinity sample"},
      {"measurement": "solid form after equilibrium (XRPD)", "setting": "[2]; pH=5.0 citrate/phosphate", "result": "no form change"},
      {"measurement": "solubility at 24 h", "setting": "[3]; 50 mM citrate buffer, pH 4.89, aqueous buffer", "result": 13.2, "unit": "mg/mL"},
      {"measurement": "form change after equilibrium in all citrate buffers (XRPD)", "setting": "[3]; 10/20/50/100 mM citrate buffers, 24 hours", "result": "No form change"},
      {"measurement": "solubility at 24 h", "setting": "[3]; aqueous buffer, 10 mM citrate buffer, buffer pH 2.88, RT, 24 hours, end pH 4.47", "result": 8.6, "unit": "mg/mL"},
      {"measurement": "solubility at 24 h", "setting": "[3]; aqueous buffer, 10 mM citrate buffer, buffer pH 3.34, RT, 24 hours, end pH 4.57", "result": 4, "unit": "mg/mL"},
      {"measurement": "solubility at 24 h", "setting": "[3]; aqueous buffer, 10 mM citrate buffer, buffer pH 3.89, RT, 24 hours, end pH 4.76", "result": 3.4, "unit": "mg/mL"},
      {"measurement": "solubility at 24 h", "setting": "[3]; aqueous buffer, 10 mM citrate buffer, buffer pH 4.30, RT, 24 hours, end pH 4.82", "result": 2.1, "unit": "mg/mL"},
      {"measurement": "solubility at 24 h", "setting": "[3]; aqueous buffer, 10 mM citrate buffer, buffer pH 4.90, RT, 24 hours, end pH 5.21", "result": 0.7, "unit": "mg/mL"},
      {"measurement": "solubility at 24 h", "setting": "[3]; aqueous buffer, 20 mM citrate buffer, buffer pH 3.02, RT, 24 hours, end pH 4.59", "result": 14, "unit": "mg/mL"},
      {"measurement": "solubility at 24 h", "setting": "[3]; aqueous buffer, 20 mM citrate buffer, buffer pH 3.55, RT, 24 hours, end pH 4.69", "result": 9.8, "unit": "mg/mL"},
      {"measurement": "solubility at 24 h", "setting": "[3]; aqueous buffer, 20 mM citrate buffer, buffer pH 4.01, RT, 24 hours, end pH 4.67", "result": 5.5, "unit": "mg/mL"},
      {"measurement": "solubility at 24 h", "setting": "[3]; aqueous buffer, 20 mM citrate buffer, buffer pH 4.60, RT, 24 hours, end pH 4.91", "result": 2.3, "unit": "mg/mL"},
      {"measurement": "solubility at 24 h", "setting": "[3]; aqueous buffer, 20 mM citrate buffer, buffer pH 4.98, RT, 24 hours, end pH 5.28", "result": 0.8, "unit": "mg/mL"},
      {"measurement": "solubility at 24 h", "setting": "[3]; aqueous buffer, 50 mM citrate buffer, buffer pH 3.76, RT, 24 hours, end pH 4.82", "result": 23.8, "unit": "mg/mL"},
      {"measurement": "solubility at 24 h", "setting": "[3]; aqueous buffer, 50 mM citrate buffer, buffer pH 4.70, RT, 24 hours, end pH 4.93", "result": 4.7, "unit": "mg/mL"},
      {"measurement": "solubility at 24 h", "setting": "[3]; aqueous buffer, 50 mM citrate buffer, buffer pH 5.27, RT, 24 hours, end pH 5.33", "result": 0.8, "unit": "mg/mL"},
      {"measurement": "solubility at 24 h", "setting": "[3]; aqueous buffer, 100 mM citrate buffer, buffer pH 3.60, RT, 24 hours, end pH 4.92", "result": 24.3, "unit": "mg/mL"},
      {"measurement": "solubility at 24 h", "setting": "[3]; aqueous buffer, 100 mM citrate buffer, buffer pH 4.07, RT, 24 hours, end pH 4.88", "result": 56.8, "unit": "mg/mL"},
      {"measurement": "solubility at 24 h", "setting": "[3]; aqueous buffer, 100 mM citrate buffer, buffer pH 4.51, RT, 24 hours, end pH 5.03", "result": 21.2, "unit": "mg/mL"},
      {"measurement": "solubility at 24 h", "setting": "[3]; aqueous buffer, 100 mM citrate buffer, buffer pH 5.03, RT, 24 hours, end pH 5.16", "result": 4.4, "unit": "mg/mL"},
      {"measurement": "solubility at 24 h", "setting": "[3]; pH 4.7, aqueous buffer, 50 mM citrate buffer, buffer pH 3.23, RT, 24 hours, end pH 4.70", "result": 33.2, "unit": "mg/mL"},
      {"measurement": "solubility at 24 h", "setting": "[3]; pH 5.5, aqueous buffer, 100 mM citrate buffer, buffer pH 5.42, RT, 24 hours, end pH 5.50", "result": 0.6, "unit": "mg/mL"},
      {"measurement": "solubility at 24 h", "setting": "[4]; 5% (w/w) HPβCD solution, aqueous with cosolvent or surfactant or cyclodextrin, 5% (w/w) HPβCD, RT, 24 hours, final pH 7.3, read-out: Solubility", "result": 0.42, "unit": "mg/mL"},
      {"measurement": "solubility at 24 h", "setting": "[4]; 5% (w/w) HPβCD solution, pH 7.3, aqueous with cosolvent or surfactant or cyclodextrin, 5% HPβCD (40.78 mmol/L), read-out: API Solubility", "result": 660, "unit": "µM"},
      {"measurement": "solubility at 24 h", "setting": "[4]; 10% (w/w) HPβCD solution, aqueous with cosolvent or surfactant or cyclodextrin, 10% (w/w) HPβCD, RT, 24 hours, final pH 7.2, read-out: Solubility", "result": 0.94, "unit": "mg/mL"},
      {"measurement": "solubility at 24 h", "setting": "[4]; 10% (w/w) HPβCD solution, pH 7.2, aqueous with cosolvent or surfactant or cyclodextrin, 10% HPβCD (81.56 mmol/L), read-out: API Solubility", "result": 1470, "unit": "µM"},
      {"measurement": "solubility at 24 h", "setting": "[4]; 15% (w/w) HPβCD solution, aqueous with cosolvent or surfactant or cyclodextrin, 15% (w/w) HPβCD, RT, 24 hours, final pH 7.1, read-out: Solubility", "result": 1.42, "unit": "mg/mL"},
      {"measurement": "solubility at 24 h", "setting": "[4]; 15% (w/w) HPβCD solution, pH 7.1, aqueous with cosolvent or surfactant or cyclodextrin, 15% HPβCD (122.34 mmol/L), read-out: API Solubility", "result": 2220, "unit": "µM"},
      {"measurement": "solubility at 24 h", "setting": "[4]; 20% (w/w) HPβCD solution, aqueous with cosolvent or surfactant or cyclodextrin, 20% (w/w) HPβCD, RT, 24 hours, final pH 7.0, read-out: Solubility", "result": 2.09, "unit": "mg/mL"},
      {"measurement": "solubility at 24 h", "setting": "[4]; 20% (w/w) HPβCD solution, pH 7, aqueous with cosolvent or surfactant or cyclodextrin, 20% HPβCD (163.11 mmol/L), read-out: API Solubility", "result": 3260, "unit": "µM"},
      {"measurement": "solubility at 24 h", "setting": "[4]; 25% (w/w) HPβCD solution, aqueous with cosolvent or surfactant or cyclodextrin, 25% (w/w) HPβCD, RT, 24 hours, final pH 7.0, read-out: Solubility", "result": 2.89, "unit": "mg/mL"},
      {"measurement": "solubility at 24 h", "setting": "[4]; 25% (w/w) HPβCD solution, pH 7, aqueous with cosolvent or surfactant or cyclodextrin, 25% HPβCD (203.89 mmol/L), read-out: API Solubility", "result": 4510, "unit": "µM"},
      {"measurement": "form change during solubility evaluation (XRPD)", "setting": "[4]; HPβCD solutions, 24 hours", "result": "No form change"},
      {"measurement": "complexation stability constant K^1:1", "setting": "[4]; HPβCD, Higuchi-Connors phase-solubility method", "result": 1529, "unit": "M⁻¹"},
      {"measurement": "form change after exposure to different humidity levels (XRPD)", "setting": "[5]", "result": "no form change; also recorded: kinetically stable for at least 6 weeks"},
      {"measurement": "thermodynamic relationship of the forms", "setting": "[6]", "result": "thermodynamic form at the ambient conditions; also recorded: more stable hydrate form compared to freeform Type A"}
    ]}
  ]
}
